pIC50, pKi: −log10 of the molar value. Read-outs that look alike come from different tables or passages of the source. Values belong to the compound of their own block, whether it stands above or below them.
Key:
CDK2/Cyclin A complex = CDK2/Cyclin A complex (Homo sapiens, UniProt P24941); test: CDK2/Cyclin A assay; type: biochemical; conditions: Table 2
How it was run: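 Radiometric assay: 150 nM CDK2/cyclin A (insect-cell CDK2, truncated cyclin A) phosphorylates His-tagged Rb fragment (residues 386-928) with 25 μM ATP plus [32P]ATP, pH 7.4 HEPES, 2% DMSO, 30 °C for 20 min. Filter-captured product counted by phosphorimager; apparent Ki from competitive or tight-binding inhibition fits.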

CDK4/Cyclin D3 complex = molecular target: T1, CDK4/Cyclin D3 complex (Homo sapiens, UniProt P11802); test: CDK4/Cyclin D assay; type: biochemical; conditions: Table 2; for inhibition at 100 µM: at 100 (printed 100 or 100 μM)
T1 construct: made in house; host or cells: insect cells co-infected with baculovirus vectors
T1 sequence (P11802 whole entry): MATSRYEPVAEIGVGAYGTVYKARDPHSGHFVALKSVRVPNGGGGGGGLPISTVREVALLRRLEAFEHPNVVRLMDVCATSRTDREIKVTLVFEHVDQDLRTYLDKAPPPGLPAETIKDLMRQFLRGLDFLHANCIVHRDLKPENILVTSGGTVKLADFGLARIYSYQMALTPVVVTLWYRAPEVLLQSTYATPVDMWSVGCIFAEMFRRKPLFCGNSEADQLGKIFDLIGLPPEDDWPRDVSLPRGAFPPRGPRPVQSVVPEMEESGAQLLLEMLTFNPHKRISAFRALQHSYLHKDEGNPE
T1 sequence (P30281 whole entry partner): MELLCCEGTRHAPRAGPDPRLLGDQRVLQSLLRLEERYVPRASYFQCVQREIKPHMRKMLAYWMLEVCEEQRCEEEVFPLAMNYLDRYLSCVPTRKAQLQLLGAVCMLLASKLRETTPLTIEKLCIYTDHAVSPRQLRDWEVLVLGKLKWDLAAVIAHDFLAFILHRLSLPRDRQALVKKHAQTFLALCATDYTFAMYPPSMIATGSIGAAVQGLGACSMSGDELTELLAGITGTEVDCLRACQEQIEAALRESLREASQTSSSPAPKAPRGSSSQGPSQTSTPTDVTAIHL
How it was run: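 Insect-cell-expressed CDK4/cyclin D3 (50 nM) phosphorylating His-tagged Rb fragment (residues 386-928) with 25 μM [^32P]ATP in HEPES pH 7.4, MgCl2, 2% DMSO; 20 min at 30 °C, EDTA stop. Filter-captured 32P by phosphorimager; apparent Ki from competitive or tight-binding inhibition fits.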

[1] = molecular target: T2, phosphorylated VEGF-R2Δ50 (Homo sapiens, UniProt P35968, DEL940-989/E990V); test: VEGF-R2 ELISA assay; type: biochemical; conditions: for pKi: * determined with ELISA assay, read-out: FLVK-P Ki; for FLVK-P % inhibition @ 300*: at 300 (head μM)
T2 construct: VEGF-R2Δ50 contains residues 806-939 and 990-1171; made in house; host or cells: baculovirus/insect cells
T2 sequence (P35968 with tags, fused parts or gaps DEL940-989/E990V limits assumed): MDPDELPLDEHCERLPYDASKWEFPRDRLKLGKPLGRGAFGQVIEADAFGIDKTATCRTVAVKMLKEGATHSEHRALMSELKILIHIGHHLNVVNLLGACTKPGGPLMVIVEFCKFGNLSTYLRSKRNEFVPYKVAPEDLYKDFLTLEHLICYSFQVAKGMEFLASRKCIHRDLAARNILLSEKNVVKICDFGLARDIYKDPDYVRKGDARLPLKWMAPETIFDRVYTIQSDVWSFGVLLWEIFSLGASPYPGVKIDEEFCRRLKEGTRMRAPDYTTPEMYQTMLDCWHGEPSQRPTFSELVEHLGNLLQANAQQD
From the text: VEGF-R2 Construct for Assay: This construct determines the ability of a test compound to inhibit tyrosine kinase activity. A construct (VEGF-R2Δ50) of the cytosolic domain of human vascular endothelial growth factor receptor 2 (VEGF-R2) lacking the 50 central residues of the 68 residues of the kinase insert domain was expressed in a baculovirus/insect cell system. Of the 1356 residues of full-length VEGF-R2, VEGF-R2Δ50 contains residues 806-939 and 990-1171, and also one point mutation (E990V) within the kinase insert domain relative to wild-type VEGF-R2. Autophosphorylation of the purified construct was performed by incubation of the enzyme at a concentration of 4 μM in the presence of 3 mM ATP and 40 mM MgCl2 in 100 mM Hepes, pH 7.5, containing 5% glycerol and 5 mM DTT, at 4° C. for 2 h. […] See Parast et al., Biochemistry, 37, 16788-16801 (1998).
Formation of phosphogastrin was monitored using biotinylated gastrin peptide (1-17) as substrate. Biotinylated phosphogastrin was immobilized using streptavidin coated 96-well microtiter plates followed by detection using anti-phosphotyrosine-antibody conjugated to horseradish peroxidase. The activity of horseradish peroxidase was monitored using 2,2′-azino-di-[3-ethylbenzathiazoline sulfonate(6)]diammonium salt (ABTS). Typical assay solutions contained: 2 μM biotinylated gastrin peptide; 5 mM DTT; 20 μM ATP; 26 mM MgCl2; and 2 mM MnCl2 in 200 mM Hepes, pH 7.5. The assay was initiated with 0.8 nM of phosphorylated VEGF-R2Δ50. Horseradish peroxidase activity was assayed using ABTS, 10 mM. The horseradish peroxidase reaction was quenched by addition of acid (H2SO4), followed by absorbance reading at 405 nm. Ki values were determined by measuring enzyme activity in the presence of varying concentrations of test compounds. The data were analyzed using Enzyme Kinetic and Kaleidagraph software.

CHK1 = molecular target: T3, CHK1 (Homo sapiens, UniProt O14757); test: CHK1 high-throughput screening; type: biochemical; conditions: read-out: % inhibition @ 20 μM, Table 4, repeated entries per example
T3 sequence (O14757 1-476): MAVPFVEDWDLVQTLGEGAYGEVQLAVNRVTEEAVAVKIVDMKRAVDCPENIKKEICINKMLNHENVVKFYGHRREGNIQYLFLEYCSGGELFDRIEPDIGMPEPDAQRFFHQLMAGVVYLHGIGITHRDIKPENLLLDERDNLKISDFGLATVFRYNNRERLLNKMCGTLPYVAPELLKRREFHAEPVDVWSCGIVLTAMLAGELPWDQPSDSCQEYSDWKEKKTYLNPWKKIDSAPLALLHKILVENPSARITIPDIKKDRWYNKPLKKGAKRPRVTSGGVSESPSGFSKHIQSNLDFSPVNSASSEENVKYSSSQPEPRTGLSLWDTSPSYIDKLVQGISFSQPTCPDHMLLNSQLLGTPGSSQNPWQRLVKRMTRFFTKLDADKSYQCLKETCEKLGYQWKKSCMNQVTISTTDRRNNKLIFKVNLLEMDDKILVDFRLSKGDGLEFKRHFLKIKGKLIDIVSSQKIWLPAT

[2] = tested on: lung cancer cells (line MV522); test: Cancer cell proliferation (MV522) assay; type: cell-based; conditions: MV522, Table 1
[3] = tested on: human umbilical vein endothelial cells (HUVEC); test: HUVEC proliferation assay; type: cell-based; conditions: Homo sapiens, HUVEC, Table 1
How it was run: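 Exponentially growing HUVEC were serum-starved 24 h (F12K + 1% FBS), pre-treated 1 h with compound (0.1% DMSO final), then stimulated with 6 ng/ml VEGF. Proliferation was read 72 h later by MTT reduction (A595). IC50 came from seven 0.5-log concentrations in triplicate; screens gave % inhibition relative to VEGF-only and starved wells.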

[4] = molecular target: T4, unphosphorylated VEGF-R2Δ50 (FLVK) (Homo sapiens, UniProt P35968, DEL940-989/E990V); test: VEGF-R2 coupled spectrophotometric assay, unphosphorylated enzyme (FLVK); type: biochemical; conditions: Table 1
T4 construct: VEGF-R2Δ50 contains residues 806-939 and 990-1171; made in house; host or cells: baculovirus/insect cells
T4 sequence (P35968 with tags, fused parts or gaps DEL940-989/E990V limits assumed): as the sequence (P35968 with tags, fused parts or gaps DEL940-989/E990V limits assumed) above
How it was run: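 Unphosphorylated VEGF-R2Δ50 (5 to 40 nM) with 20 mM poly(E4Y1), 3 mM ATP, 60 mM MgCl2, 2 mM MnCl2 in 200 mM Hepes pH 7.5. ADP production coupled via PK/LDH to NADH oxidation, read at 340 nm. Ki from activity at varying compound concentrations.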

Structure (SMILES): Nc1nc(Nc2ccc(S(N)(=O)=O)cc2)sc1-c1nc(-c2ccc(O)cc2)cs1 [A(8), 4-[4′-Amino-4-(4-hydroxy-phenyl)-[2,5′]bithiazolyl-2′-ylamino]-benzenesulfonamide]
pKi (CDK2/Cyclin A complex): 6.10
pKi (CDK4/Cyclin D3 complex): 6.38
pKi ([1]; Table 2): 7.24

Structure (SMILES): Nc1nc(Nc2ccc(S(N)(=O)=O)cc2)sc1-c1nc(-c2cccc(C(=O)O)c2)cs1 [A(21), 3-[4′-Amino-2′-(4-sulfamoyl-phenylamino)-[2,5′]bithiazolyl-4-yl]-benzoic acid]
inhibition at 20 µM (CHK1): -7.2%
pKi (CDK2/Cyclin A complex): 5.09
pKi (CDK4/Cyclin D3 complex): 4.35
pKi ([1]; Table 2): 5.06

Structure (SMILES): Cc1ccc(-c2csc(-c3sc(Nc4ccc(S(N)(=O)=O)cc4)nc3N)n2)cc1 [A(24), 4-(4′-Amino-4-p-tolyl-[2,5′]bithiazolyl-2′-ylamino)-benzenesulfonamide]
inhibition at 20 µM (CHK1): 13.3%
pKi (CDK2/Cyclin A complex): 5.47
CDK4 % inhibition @ 10 (CDK4/Cyclin D3 complex; at 10 (head μM)): 64% @
pKi ([1]; Table 2): 5.26

Structure (SMILES): COc1cc(Nc2nc(N)c(-c3nc(-c4cccc(NC(=O)Oc5ccccc5)c4)cs3)s2)cc(OC)c1OC [D(4), {3-[4′-Amino-2′-(3,4,5-trimethoxy-phenylamino)-[2,5′]bithiazolyl-4-yl]-phenyl}-carbamic acid phenyl ester]
pIC50 [2]: < 5.00
pIC50 [3]: 6.62
pKi ([1]; Table 1): 8.12

Structure (SMILES): COc1cc(Nc2nc(N)c(-c3nc(-c4cccc(NC(=O)c5cc6ccccc6o5)c4)cs3)s2)cc(OC)c1OC [D(21), Benzofuran-2-carboxylic acid {3-[4′-amino-2′-(3,4,5-trimethoxy-phenylamino)-[2,5′]bithiazolyl-4-yl]-phenyl}-amide]
pIC50 [2]: < 5.00
pIC50 [3]: 6.70
pKi ([1]; Table 1): 7.22

Structure (SMILES): COc1cc(Nc2nc(N)c(-c3nc(-c4cccc(NC(=O)c5ncc(C)s5)c4)no3)s2)cc(OC)c1OC [D(51)]
pIC50 [2]: < 5.00
pIC50 [3]: 7.40
pKi [4]: 9.21
pKi ([1]; Table 1): 7.49

Structure (SMILES): COc1cc(Nc2nc(N)c(-c3ccccn3)s2)cc(OC)c1OC [G(1), 5-Pyridin-2-yl-N^2-(3,4,5-trimethoxy-phenyl)-thiazole-2,4-diamine]
pKi (CDK4/Cyclin D3 complex): 4.30
pKi ([1]; Table 2): 4.24

Structure (SMILES): Nc1nc(Nc2ccccc2)sc1-c1ccccn1 [G(2), N^2-Phenyl-5-pyridin-2-yl-thiazole-2,4-diamine]
pKi (CDK4/Cyclin D3 complex): 5.24
FLVK-P % inhibition @ 100* ([1]; Table 2, ELISA assay, at 100 (head μM)): 18% @

Structure (SMILES): Nc1nc(Nc2ccc3c(c2)OCCO3)sc1-c1ccccn1 [G(3), N^2-(2,3-Dihydro-benzo[1,4]dioxin-6-yl)-5-pyridin-2-yl-thiazole-2,4-diamine]
pKi (CDK4/Cyclin D3 complex): 5.21
FLVK-P % inhibition @ 20* ([1]; Table 2, ELISA assay, at 20 (head μM)): 13% @

Structure (SMILES): COc1ccc(Nc2nc(N)c(-c3ccccn3)s2)cc1OC [G(4), N^2-(3,4-Dimethoxy-phenyl)-5-pyridin-2-yl-thiazole-2,4-diamine]
pKi (CDK4/Cyclin D3 complex): 4.94
FLVK-P % inhibition @ 300* ([1]; Table 2, ELISA assay): 42% @

Structure (SMILES): COc1cc(Nc2nc(N)c(-c3noc(-c4ccsc4)n3)s2)cc(OC)c1OC [G(7), 5-(5-Thiophen-3-yl-[1,2,4]oxadiazol-3-yl)-N^2-(3,4,5-trimethoxy-phenyl)-thiazole-2,4-diamine]
CDK2 % inhibition @ 10 (CDK2/Cyclin A complex; at 10 (head μM)): 21% @
pKi ([1]; Table 2): 5.80

Structure (SMILES): Nc1nc(Nc2ccc(S(N)(=O)=O)cc2)sc1-c1nc(O)cs1 [H(1), 4-(4′-Amino-4-hydroxy-[2,5′]bithiazolyl-2′-ylamino)-benzenesulfonamide]
pKi (CDK2/Cyclin A complex): 6.19
pKi (CDK4/Cyclin D3 complex): 5.42
pKi ([1]; Table 2): 5.44

Second part, the compound after the results:

pKi (CDK2/Cyclin A complex): 5.06
pKi (CDK4/Cyclin D3 complex): 5.77
pKi ([1]; Table 2): 5.21
Structure (SMILES): CN(C)c1ccc(Nc2nc(N)c(-c3nc(O)c(-c4ccccc4O)s3)s2)cc1 [H(3), 4′-Amino-2′-(4-dimethylamino-phenylamino)-5-(2-hydroxy-phenyl)-[2,5′]bithiazoly-4-ol]

inhibition at 100 µM (CDK4/Cyclin D3 complex): < 0%
FLVK-P % inhibition @ 300* ([1]; Table 2, ELISA assay): 40% @
Structure (SMILES): COc1cc(Nc2nc(N)c(C3=NC(CC(C)C)CO3)s2)cc(OC)c1OC (centres unmarked) [I(3), S-5-(4-Isobutyl-4,5-dihydro-oxazol-2-yl)-N^2-(3,4,5-trimethoxyl-phenyl)-thiazole-2,4-diamine]

inhibition at 100 µM (CDK4/Cyclin D3 complex): 47%
pKi ([1]; Table 2): 6.11
Structure (SMILES): Nc1nc(Nc2ccc(S(N)(=O)=O)cc2)sc1C1=NC(c2ccccc2)CO1 (centres unmarked) [I(5), S-4-[4-Amino-5-(4-phenyl-4,5-dihydro-oxazol-2-yl)-thiazol-2-ylamino]-benzenesulfonamide]

pKi ([1]; Table 2): 5.28
Structure (SMILES): COc1cc(Nc2nc(N)c(C3=N[C@H](c4ccccc4)CO3)s2)cc(OC)c1OC [I(7), R-5-(4-Phenyl-4,5-dihydro-oxazol-2-yl)-N^2-(3,4,5-trimethoxyl-phenyl)-thiazole-2,4-diamine]

pKi ([1]; Table 2): 5.57
Structure (SMILES): COc1cc(Nc2nc(N)c(C3=N[C@H](C)[C@H](c4ccccc4)O3)s2)cc(OC)c1OC [I(18), 5-(4(R)-Methyl-5(S)-phenyl-4,5-dihydro-oxazol-2-yl)-N^2-(3,4,5-trimethoxy-phenyl)-thiazole-2,4-diamine]

inhibition at 100 µM (CDK4/Cyclin D3 complex): < 0%
pKi ([1]; Table 2): 4.19
Structure (SMILES): COc1cc(Nc2nc(N)c(-c3nn[nH]n3)s2)cc(OC)c1OC [J(1), 5-(2H-Tetrazol-5-yl-)-N-(3,4,5-trimethoxyl)-thiazole-2,4-diamine]

inhibition at 100 µM (CDK4/Cyclin D3 complex): 29%
pKi ([1]; Table 2): 4.28
Structure (SMILES): CN(C)c1ccc(Nc2nc(N)c(-c3nn[nH]n3)s2)cc1 [J(2), N-(4-Dimethylamino-phenyl)-5-(2H-tetrazol-5-yl)-thiazole-2,4-diamine]

Source: patent US6620828B2, “Thiazole compounds and pharmaceutical compositions for inhibiting protein kinases and methods for their use” (Agouron Pharmaceuticals, Inc., priority 1999, dated 2003)
